# Measured values: patent publication US8314255B2, “Use of phthalimide and/or sulphonamide derivatives in the treatment of diseases which require reducing the TNF- α levels and an exogenous source of nitric oxide, phthalimide derivatives, sulphonamide derivatives, and a method for obtaining a sulphonamide derivative” (priority 2007, dated 2012)
# “And” between values parts separate entries of the source, which are not always exact repeats. Equal values may be shown once.
# Columns and labels:
# [1] = system: Salmonella typhimurium TA100; assay: AMES test, mutagenic evaluation in Salmonella typhimurium TA100 strain with/without metabolic activation (S9); assay type: cell-based
# Outline: (§1)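 Preincubation Ames assay, 20–30 min at 37 °C with compound in DMSO, in 0.2 M phosphate buffer pH 7.4 or, with activation, Aroclor 1254-induced Sprague Dawley rat liver S9 mix. Plated in histidine/biotin-trace top agar, revertants counted after 48 h at 37 °C, triplicate. Mutagenicity ratio versus negative control, ≥2 scored positive; dose-response by ANOVA/Bernstein regression.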
# [2] = system: Salmonella typhimurium TA102; assay: AMES test, mutagenic evaluation in Salmonella typhimurium TA102 strain with/without metabolic activation (S9); assay type: cell-based
# Outline: as §1
# [3] = system: abdominal writhing induced by acetic acid; assay: Abdominal writhing assay induced by acetic acid; assay type: in vivo; details: oral, mice, acetic acid 0.1N i.p. after 1 hour, writhings counted during 20 minutes
# Description: In order to evaluate the peripheral analgesic activity of the compounds, an abdominal writhing assay induced by acetic acid (Table 6) was carried out. In this assay, we could infer that compound ID has an important analgesic activity, inhibiting abdominal writhing by 66%. […] The analgesic activity may be related to the ability of these compounds to inhibit the cytokine TNFα, since it is known that this would be one of the mechanisms that explain the analgesia of molecules such as thalidomide.
# The antinociceptive profile was evaluated through the abdominal writhing assay induced by acetic acid in mice. In this assay, Swiss mice from both genders were used, weighing from 21 to 28 grams, fasted for a time period of about 8 hours. The test substance was administered orally and had, as a carrier, 5% gum arabic. After 1 hour, the administration of acetic acid 0.1N (0.1 mL/10 g weight) was performed in the peritoneal cavity of the animals. Ten minutes after the injection of acetic acid, writhings were counted during 20 minutes.
smiles,measurement,setting,value
"O=C1c2ccccc2C(=O)N1c1ccc(CO[N+](=O)[O-])cc1 [ID, 4-(1,3-dioxo-1,3-dihydro-2H-isoindol-2-yl)benzyl nitrate]",mutagenicity ratio (MR),"[1]; TA 100, +S9, 0.224 μmol/plate",1.21
same,number of revertants per plate,"[1]; TA 100, +S9, 0.224 μmol/plate",157 ± 13 revertants/plate
same,mutagenicity ratio (MR),"[1]; TA 100, +S9, 0.488 μmol/plate",1.42
same,number of revertants per plate,"[1]; TA 100, +S9, 0.488 μmol/plate",184.7 ± 16 revertants/plate
same,mutagenicity ratio (MR),"[1]; TA 100, +S9, 0.896 μmol/plate",1.67
same,number of revertants per plate,"[1]; TA 100, +S9, 0.896 μmol/plate",216.7 ± 18 revertants/plate
same,mutagenicity ratio (MR),"[1]; TA 100, +S9, 1.8 μmol/plate",1.49
same,number of revertants per plate,"[1]; TA 100, +S9, 1.8 μmol/plate",192.7 ± 16 revertants/plate
same,mutagenicity ratio (MR),"[1]; TA 100, +S9, 3.58 μmol/plate",2.03
same,number of revertants per plate,"[1]; TA 100, +S9, 3.58 μmol/plate",263 ± 12.3 revertants/plate
same,mutagenicity ratio (MR),"[1]; TA 100, −S9, 0.224 μmol/plate",1.27
same,number of revertants per plate,"[1]; TA 100, −S9, 0.224 μmol/plate",228 ± 18 revertants/plate
same,mutagenicity ratio (MR),"[1]; TA 100, −S9, 0.488 μmol/plate",1.33
same,number of revertants per plate,"[1]; TA 100, −S9, 0.488 μmol/plate",239 ± 11.5 revertants/plate
same,mutagenicity ratio (MR),"[1]; TA 100, −S9, 0.896 μmol/plate",1.29
same,number of revertants per plate,"[1]; TA 100, −S9, 0.896 μmol/plate",231 ± 20.2 revertants/plate
same,mutagenicity ratio (MR),"[1]; TA 100, −S9, 1.8 μmol/plate",1.18
same,number of revertants per plate,"[1]; TA 100, −S9, 1.8 μmol/plate",212.3 ± 17 revertants/plate
same,mutagenicity ratio (MR),"[1]; TA 100, −S9, 3.58 μmol/plate",1.94
same,number of revertants per plate,"[1]; TA 100, −S9, 3.58 μmol/plate",349 ± 5.6 revertants/plate
same,mutagenicity ratio (MR),"[2]; TA 102, +S9, 0.224 μmol/plate",1.09
same,number of revertants per plate,"[2]; TA 102, +S9, 0.224 μmol/plate",405.7 ± 13 revertants/plate
same,mutagenicity ratio (MR),"[2]; TA 102, +S9, 0.488 μmol/plate",1.16
same,number of revertants per plate,"[2]; TA 102, +S9, 0.488 μmol/plate",434.7 ± 21 revertants/plate
same,mutagenicity ratio (MR),"[2]; TA 102, +S9, 0.896 μmol/plate",0.99
same,number of revertants per plate,"[2]; TA 102, +S9, 0.896 μmol/plate",370 ± 6 revertants/plate
same,mutagenicity ratio (MR),"[2]; TA 102, +S9, 1.8 μmol/plate",1.06
same,number of revertants per plate,"[2]; TA 102, +S9, 1.8 μmol/plate",397.3 ± 9.3 revertants/plate
same,mutagenicity ratio (MR),"[2]; TA 102, +S9, 3.58 μmol/plate",1.14
same,number of revertants per plate,"[2]; TA 102, +S9, 3.58 μmol/plate",427.3 ± 5 revertants/plate
same,mutagenicity ratio (MR),"[2]; TA 102, −S9, 0.224 μmol/plate",1.31
same,number of revertants per plate,"[2]; TA 102, −S9, 0.224 μmol/plate",340.3 ± 9.7 revertants/plate
same,mutagenicity ratio (MR),"[2]; TA 102, −S9, 0.488 μmol/plate",1.43
same,number of revertants per plate,"[2]; TA 102, −S9, 0.488 μmol/plate",373.5 ± 21 revertants/plate
same,mutagenicity ratio (MR),"[2]; TA 102, −S9, 0.896 μmol/plate",1.5
same,number of revertants per plate,"[2]; TA 102, −S9, 0.896 μmol/plate",391.2 ± 6.3 revertants/plate
same,mutagenicity ratio (MR),"[2]; TA 102, −S9, 1.8 μmol/plate",1.87
same,number of revertants per plate,"[2]; TA 102, −S9, 1.8 μmol/plate",486.8 ± 20 revertants/plate
same,mutagenicity ratio (MR),"[2]; TA 102, −S9, 3.58 μmol/plate",1.62
same,number of revertants per plate,"[2]; TA 102, −S9, 3.58 μmol/plate",420 ± 8.6 revertants/plate
same,Average (abdominal writhings),[3],16.2
same,Inhibition % (abdominal writhing),[3],66% and 66.03%
